# Legend:
# SH-SY5Y cells = test: Cell survival experiment (MTT), cell death induced by amyloid β protein; format: cell-based; details: compound 12.56 μM, 72 h, compared to “Aβ”
# Procedure: Each well of a 96-well plate (BD Biocoat) was seeded with SH-SY5Y cells (model of neuronal cells, ATCC) at a concentration of 2×10^5 cells/mL (100 μL/well) and the cells were cultured at 37° C. and 5% CO2 for 24 h. Culture medium used was F12/DMEM (Gibco) supplemented with 1% non-essential amino acids (Gibco), 15% FBS (Bio West), and 1% penicillin/streptomycin (Lonza).
# After 24 h, the culture medium was completely removed with an aspirator, 100 μL of culture medium Opti-MEM (Gibco) was added to each well, and the cells were cultured at 37° C. and 5% CO2 for 24 h. […]
# Absorbance at 570 nm was measured on a microplate reader (Sumitomo Dainippon Pharma) to measure the MTT formazan production to calculate % relative cell survival (designated as “Control” in FIG. 1).
# 24 h after seeding a 96-well plate (BD Biocoat) with SH-SY5Y cells, the culture medium was completely removed with an aspirator, amyloid β protein (Beta-Amyloid 1-42, AnaSpec) was mixed with Opti-MEM (Gibco) so that the final concentration was 15 μM, 100 μL of the mixture was added to each well, and the cells were cultured at 37° C. and 5% CO2 for 72 h to induce cell death. Except for performing the procedure described above, the MTT formazan production was measured as described above to calculate % relative cell survival (designated as “Aβ” in FIG. 1). […]
# [1] = tested on: PARP1 (poly(ADP-ribose) polymerase 1); test: Gene expression experiment (real-time PCR) in SH-SY5Y cells: PARP1; format: cell-based; details: 24 h
# Procedure: SH-SY5Y cells were seeded in 100 mm-cell dishes (BD Biocoat) at concentrations of 3.7×10^5 cells/mL (10 mL/dish) and cultured for 24 h at 37° C. and 5% CO2. Culture medium used was F12/DMEM (Gibco) supplemented with 1% non-essential amino acids (Gibco), 15% FBS (Bio West), and 1% penicillin/streptomycin (Lonza). After 24 h, the culture medium was completely removed with an aspirator, 10 mL of culture medium Opti-MEM(Gibco) was added to each dish, and the cells were cultured for 24 h at 37° C. and 5% CO2. RNA was extracted from the culture cells and analyzed for the expression of genes described below by real-time PCR (designated as “Control” in FIGS. 2 to 8).
# RNA extraction was performed using ISOGEN Reagent (Nippon Gene Co., Ltd.) in accordance with the protocol recommended by Nippo n Gene Co., Ltd. (see URL: https://www.nippongene.com/siyaku/product/extraction/tds/tds_isogen-rna-dna-protein.pdf). Real-time PCR was performed according to the protocol recommended by Thermo Fisher Scientific using a reagent kit for TaqMan Real-Time PCR (Thermo Fisher Scientific) (see URL: https://assets.thermofisher.com/TFS-Assets/LSG/manuals/4304449_TaqManPCRMM_UG.pdf).
# 24 h after seeding 100 mm-cell dishes (BD Biocoat) with SH-SY5Y cells, the culture medium was completely removed with an aspirator, amyloid β protein (Beta-Amyloid 1-42, AnaSpec) was mixed with Opti-MEM (Gibco) so that the final concentration was 5 μM, 10 mL of the mixture was added to each dish, the cells were cultured for 24 h at 37° C. and 5% CO2, and RNA was extracted. Except for performing the procedure described above, gene expression was analyzed as described above (designated as “Aβ” in FIGS. 2 to 8).
# 24 h after seeding 100 mm-cell dishes (BD Biocoat) with SH-SY5Y cells, the culture medium was completely removed with an aspirator, Sample 1 was mixed with culture medium Opti-MEM(Gibco) so that the final concentration was 12.56 μM, 9,990 μL of the mixture was added to each dish and allowed to stand for 10 min, amyloid β protein (Beta-Amyloid 1-42, AnaSpec) was mixed with Opti-MEM (Gibco) so that the final concentration was […], 10 μL of the mixture was added to each well, the cells were cultured for 24 h at 37° C. and 5% CO2, and RNA was extracted. Except for performing the procedure described above, Gene expression was analyzed as described above (designated as “Aβ+M3,5G” in FIGS. 2 to 8).
# Except that Sample 2 was used instead of Sample 1, gene expression was analyzed as described above (designated as “Aβ+M” in FIGS. 2 to 8).
# Except that Sample 3 was used instead of Sample 1, gene expression was analyzed as described above (designated as “Aβ+M3G” in FIGS. 2 to 8). […]
smiles,measurement,setting,value
"COc1cc(-c2[o+]c3cc(O)cc(OC4OC(CO)C(O)C(O)C4O)c3cc2OC2OC(CO)C(O)C(O)C2O)cc(OC)c1O (stereo not drawn) [M3,5G, Malvidin-3,5-diglucoside chloride]",% relative cell survival,SH-SY5Y cells,significantly high
same,expression of PARP1,"[1]; 12.56 μM, amyloid β protein-treated cells, compared to “Aβ”",significantly high
same,expression of PARP1,"[1]; Sample 1 alone, no amyloid β, compared to “Control”",comparable
